Legend:
[1] = system: human lung cancer-derived cell line NCI-H460 having wild-type p53; experiment: Cell growth inhibition assay (MTT); assay type: cell-based; conditions: 72 h, NCI-H460 cells, 3 days culture, values given as ranges, read-out: 50% growth inhibition concentration (GI50 value)
In short: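 NCI-H460 cells (wild-type p53) seeded at 500 cells/well in RPMI1640 with 10% FBS, then treated the next day and grown 3 days at 37 °C. MTT read-out at OD 540 nm (660 nm reference), taken at dosing and at day 3. GI50 derived from T/C (%) dose-response curves.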

[2] = biological target: T1, Mdm2/p53 binding (GST-Mdm2 / His-p53) (Homo sapiens, UniProt Q00987, L33E); experiment: Mdm2/p53 binding assay (HTRF, His-p53 and GST-Mdm2); conditions: His-p53 (aa 1-132) and GST-Mdm2 (aa 25-108, L33E) 6.25 nM each; 25°C, 1 hour; values given as ranges
T1 construct: Mdm2 partial protein having Mdm2 amino acids at positions 25 to 108
In short: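 Binding was detected by HTRF (ex 320 nm, em 620/665 nm) after 1 h at 25 °C, using Eu-cryptate anti-GST and XL665 anti-His antibodies. The protein pair was GST-Mdm2 (residues 25–108, L33E) with His-p53 (residues 1–132), each 6.25 nM in the protein dilution. T/C used no-compound control and no-p53 background, and IC50 came from sigmoid fitting.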

T1 sequence (Q00987 25-108 L33E): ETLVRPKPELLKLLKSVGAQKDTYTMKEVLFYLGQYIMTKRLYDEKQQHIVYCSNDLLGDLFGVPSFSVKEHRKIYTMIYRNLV

Row | SMILES | GI50 [1] | IC50 [2]
1 | CC1(C)CCC2(CC1)N[C@@H](C(=O)N[C@H]1CO[C@H](CO)[C@@H](O)C1)[C@H](c1cccc(Cl)c1F)[C@]21C(=O)Nc2nc(Cl)ccc21 [Example 30, (3′R, 4′S,5′R)-6″-chloro-4′-(3-chloro-2-fluorophenyl)-N-[(3R,5S,6R)-5-hydroxy-6-(hydroxymethyl)tetrahydro-2H-pyran-3-yl]-4,4-dimethyl-2″-oxo-1″,2″-dihydrodispiro[cyclohexane-1,2′-pyrrolidine-3′,3″-pyrrolo[2,3-b]pyridine]-5′-carboxamide] | 1000 to 5000 nM | 1 to 50 nM
2 | CC1(C)CCC2(CC1)N[C@@H](C(=O)N[C@@H]1CC[C@@H](c3nnco3)OC1)[C@H](c1ccnc(Cl)c1F)[C@]21C(=O)Nc2cc(Cl)ccc21 [Example 34, (3′R, 4′S,5′R)-6″-chloro-4′-(2-chloro-3-fluoropyridin-4-yl)-4,4-dimethyl-N-[(3R,6S)-6-(1,3,4-oxadiazol-2-yl)tetrahydro-2H-pyran-3-yl]-2″-oxo-1″,2″-dihydrodispiro[cyclohexane-1,2′-pyrrolidine-3′,3″-indole]-5′-carboxamide] | 100 to 500 nM | 1 to 50 nM
3 | CC1(C)CCC2(CC1)N[C@@H](C(=O)N[C@H]1CC[C@H](c3n[nH]c(=O)o3)CC1)[C@H](c1ccnc(Cl)c1F)[C@]21C(=O)Nc2cc(Cl)ccc21 [Example 35, (3′R, 4′S, S′R)-6″-chloro-4′-(2-chloro-3-fluoropyridin-4-yl)-4,4-dimethyl-2″-oxo-N-[trans-4-(5-oxo-4,5-dihydro-1,3,4-oxadiazol-2-yl)cyclohexyl]-1″,2″-dihydrodispiro[cyclohexane-1,2′-pyrrolidine-3′,3″-indole]-5′-carboxamide] | < 100 nM | 50 to 100 nM
4 | O=C(N[C@@H]1CC[C@@H](CO)OC1)[C@@H]1NC2(CC(CF)(CF)C2)[C@@]2(C(=O)Nc3cc(Cl)ccc32)[C@H]1c1cccc(Cl)c1F [Example 38, (3′R, 4′S,5′R)-6″-chloro-4′-(3-chloro-2-fluorophenyl)-3,3-bis(fluoromethyl)-N-[(3R,6S)-6-(hydroxymethyl)tetrahydro-2H-pyran-3-yl]-2″-oxo-1″,2″-dihydrodispiro [cyclobutane-1,2′-pyrrolidine-3′,3″-indole]-5′-carboxamide] | 100 to 500 nM | 1 to 50 nM
5 | CC1(C)CCC2(CC1)N[C@@H](C(=O)N[C@H]1CC[C@@](O)(CO)CC1)[C@H](c1ccnc(Cl)c1F)[C@]21C(=O)Nc2cc(Cl)ccc21 [Example 40, (3′R, 4′S,5R)-6″-chloro-4′-(2-chloro-3-fluoropyridin-4-yl)-N-[trans-4-hydroxy-4-(hydroxymethyl)cyclohexyl]-4,4-dimethyl-2″-oxo-1″,2″-dihydrodispiro[cyclohexane-1,2′-pyrrolidine-3′,3″-indole]-5′-carboxamide] | 500 to 1000 nM | 1 to 50 nM
6 | CC1(C)CCC2(CC1)N[C@@H](C(=O)N[C@@H]1CC[C@@H](C(C)(C)O)OC1)[C@H](c1ccnc(Cl)c1F)[C@]21C(=O)Nc2nc(Cl)ccc21 [Example 47, (3′R, 4′S,5′R)-6″-chloro-4′-(2-chloro-3-fluoropyridin-4-yl)-N-[(3R,6S)-6-(1-hydroxy-1-methylethyl)tetrahydro-2H-pyran-3-yl]-4,4-dimethyl-2″-oxo-1″,2″-dihydrodispiro[cyclohexane-1,2′-pyrrolidine-3′,3″-pyrrolo[2,3-b]pyridine]-5′-carboxamide] | 500 to 1000 nM | 50 to 100 nM
7 | CC1(C)CCC2(CC1)N[C@@H](C(=O)N[C@H]1CC[C@H](c3n[nH]c(=O)o3)CC1)[C@H](c1ccnc(Cl)c1)[C@]21C(=O)Nc2cc(Cl)ccc21 [Example 51, (3′R, 4′R, 5′R)-6″-chloro-4′=(2-chloropyridin-4-yl)-4,4-dimethyl-2″-oxo-N-[trans-4-(5-oxo-4,5-dihydro-1,3,4-oxadiazol-2-yl)cyclohexyl]-1″,2″-dihydrodispiro[cyclohexane-1,2′-pyrrolidine-3′,3″-indole]-5′-carboxamide] | 100 to 500 nM | 50 to 100 nM
8 | CC1(C)CCC2(CC1)N[C@@H](C(=O)N[C@@H]1CC[C@@H](c3nnco3)OC1)[C@H](c1ccnc(Cl)c1)[C@]21C(=O)Nc2cc(Cl)ccc21 [Example 53, (3′R, 4′R, 5′R)-6″-chloro-4′-(2-chloropyridin-4-yl)-4,4-dimethyl-N-[(3R,6S)-6-(1,3,4-oxadiazol-2-yl)tetrahydro-2-pyran-3-yl]-2″-oxo-1″,2″-dihydrodispiro[cyclohexane-1,2′-pyrrolidine-3′,3″-indole]-5′-carboxamide] | 500 to 1000 nM | 1 to 50 nM
9 | CC1(C)CCC2(CC1)N[C@@H](C(=O)N[C@H]1CC[C@H](c3nnco3)CC1)[C@H](c1ccnc(Cl)c1)[C@]21C(=O)Nc2cc(Cl)ccc21 [Example 54, (3′R, 4′R, 5′R)-6″-chloro-4′-(2-chloropyridin-4-yl)-4,4-dimethyl-N-[trans-4-(1,3,4-oxadiazol-2-yl)cyclohexyl]-2″-oxo-1″,2″-dihydrodispiro[cyclohexane-1,2′-pyrrolidine-3′,3″-indole]-5′-carboxamide] | 500 to 1000 nM | 50 to 100 nM
10 | CC1(C)CCC2(CC1)N[C@@H](C(=O)N[C@@H]1CC[C@@H](c3n[nH]c(=O)o3)OC1)[C@H](c1ccnc(Cl)c1F)[C@]21C(=O)Nc2cc(Cl)ccc21 [Example 57, (3′R, 4′S,5′R)-6″-chloro-4′-(2-chloro-3-fluoropyridin-4-yl)-4,4-dimethyl-2″-oxo-N-[(3R,6S)-6-(5-oxo-4,5-dihydro-1,3,4-oxadiazol-2-yl)tetrahydro-2H-pyran-3-yl]-1″,2″-dihydrodispiro[cyclohexane-1,2′-pyrrolidine-3′,3″-indole]-5′-carboxamide] | 100 to 500 nM | 1 to 50 nM
11 | CC1(C)CCC2(CC1)N[C@@H](C(=O)N[C@H]1CC[C@H](C(N)=O)CC1)[C@H](c1ccnc(Cl)c1F)[C@]21C(=O)Nc2cc(Cl)ccc21 [Example 67, (3′R, 4′S,5′R)—N-(trans-4-carbamoylcyclohexyl)-6″-chloro-4′-(2-chloro-3-fluoropyridin-4-yl)-4,4-dimethyl-2′-oxo-1″,2″-dihydrodispiro[cyclohexane-1,2′-pyrrolidine-3′,3″-indole]-5′-carboxamide] | 100 to 500 nM | 1 to 50 nM
12 | CO[C@@H]1C[C@@H](NC(=O)[C@@H]2NC3(CCC(C)(C)CC3)[C@@]3(C(=O)Nc4cc(Cl)ccc43)[C@H]2c2ccnc(Cl)c2F)CO[C@@H]1CO [Example 69, (3′R, 4′S,5′R)-6″-chloro-4′-(2-chloro-3-fluoropyridin-4-yl)-N-((3R,5R,6R)-6-(hydroxymethyl)-5-methoxytetrahydro-2H-pyran-3-yl)-4,4-dimethyl-2″-oxo-1″,2″-dihydrodispiro[cyclohexane-1,2′-pyrrolidine-3′,3″-indole]-5′-carboxamide] | 100 to 500 nM | 1 to 50 nM
13 | CCNC(=O)[C@@H]1CC[C@@H](NC(=O)[C@@H]2NC3(CCC(C)(C)CC3)[C@@]3(C(=O)Nc4cc(Cl)ccc43)[C@H]2c2ccnc(Cl)c2F)CO1 [Example 88, (3′R, 4′S,5′R)-6″-chloro-4′-(2-chloro-3-fluoropyridin-4-yl)-N-[(3R,6S)-6-(ethylcarbamoyl)tetrahydro-2H-pyran-3-yl]-4,4-dimethyl-2″-oxo-1″,2″-dihydrodispiro[cyclohexane-1,2′-pyrrolidine-3′,3″-indole]-5′-carboxamide] | 100 to 500 nM | 50 to 100 nM
14 | CC(C)NC(=O)[C@@H]1CC[C@@H](NC(=O)[C@@H]2NC3(CCC(C)(C)CC3)[C@@]3(C(=O)Nc4cc(Cl)ccc43)[C@H]2c2ccnc(Cl)c2F)CO1 [Example 96, (3′R, 4′S,5′R)-6″-chloro-4′-(2-chloro-3-fluoropyridin-4-yl)-N-[(3R,6S)-6-(isopropylcarbamoyl)tetrahydro-2H-pyran-3-yl]-4,4-dimethyl-2′-oxo-1″,2″-dihydrodispiro[cyclohexane-1,2′-pyrrolidine-3′,3″-indole]-5′-carboxamide] | 100 to 500 nM | 50 to 100 nM
15 | CC1(C)CCC2(CC1)N[C@@H](C(=O)N[C@@H]1CC[C@@H](C(=O)NC3CC3)OC1)[C@H](c1ccnc(Cl)c1F)[C@]21C(=O)Nc2cc(Cl)ccc21 [Example 97, (3′R, 4′S,5′R)-6″-chloro-4′-(2-chloro-3-fluoropyridin-4-yl)-N-[(3R,6S)-6-(cyclopropylcarbamoyl)tetrahydro-2H-pyran-3-yl]-4,4-dimethyl-2″-oxo-1″,2″-dihydrodispiro[cyclohexane-1,2′-pyrrolidine-3′,3″-indole]-5′-carboxamide] | 100 to 500 nM | 1 to 50 nM
16 | CNC(=O)[C@@H]1CC[C@@H](NC(=O)[C@@H]2NC3(CCC(C)(C)CC3)[C@@]3(C(=O)Nc4cc(Cl)ccc43)[C@H]2c2ccnc(Cl)c2F)CO1 [Example 99, (3′R, 4′S,5′R)-6″-chloro-4′-(2-chloro-3-fluoropyridin-4-yl)-N-[(3R,6S)-6-(methylcarbamoyl)tetrahydro-2H-pyran-3-yl]-4,4-dimethyl-2″-oxo-1″,2″-dihydrodispiro[cyclohexane-1,2′-pyrrolidine-3′,3″-indole]-5′-carboxamide] | < 100 nM | 1 to 50 nM

Reference: US12545685B2 (Daiichi Sankyo Company, Limited, priority 2011, dated 2026)
